Where “and” joins values, the source holds several entries; their conditions need not be identical. Equal entries are not always repeated.
Test system: 817829-284-R-J1-PDC multi-cell spheroid viability
Test: Anticancer human tumor 817829-284-R-J1-PDC patient-derived colon adenocarcinoma cell line growth inhibition [PI3K]
Conditions: for viability, T/C: stronger effect = lower value; active = viability on the fitted dose curve at most 10% of control; inactive = the rest
Outline: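 Agents were dosed from a top concentration near clinical Cmax (otherwise 10 microM) in half-log decrements, alone or combined with PI3K inhibitors. The spheroids contain tumor cells plus endothelial (HUVEC) and MSC stroma; viability is measured.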

[1] = curve of first compound, second compound 0.00316 µM
[2] = curve of first compound, second compound 0.01 µM
[3] = curve of first compound, second compound 0.0316 µM
[4] = curve of first compound, second compound 0.1 µM
[5] = curve of first compound, second compound 0.316 µM
[6] = curve of first compound, second compound 1 µM
[7] = second compound 0.00316 µM, first compound 0.0316 µM
[8] = second compound 0.00316 µM, first compound 0.1 µM
[9] = second compound 0.00316 µM, first compound 0.316 µM
[10] = second compound 0.00316 µM, first compound 1 µM
[11] = second compound 0.01 µM, first compound 0.0316 µM
[12] = second compound 0.01 µM, first compound 0.1 µM
[13] = second compound 0.01 µM, first compound 0.316 µM
[14] = second compound 0.01 µM, first compound 1 µM
[15] = second compound 0.0316 µM, first compound 0.0316 µM
[16] = second compound 0.0316 µM, first compound 0.1 µM
[17] = second compound 0.0316 µM, first compound 0.316 µM
[18] = second compound 0.0316 µM, first compound 1 µM
[19] = second compound 0.1 µM, first compound 0.0316 µM
[20] = second compound 0.1 µM, first compound 0.1 µM
[21] = second compound 0.1 µM, first compound 0.316 µM
[22] = second compound 0.1 µM, first compound 1 µM
[23] = second compound 0.316 µM, first compound 0.0316 µM
[24] = second compound 0.316 µM, first compound 0.1 µM
[25] = second compound 0.316 µM, first compound 0.316 µM
[26] = second compound 0.316 µM, first compound 1 µM
[27] = second compound 1 µM, first compound 0.0316 µM
[28] = second compound 1 µM, first compound 0.1 µM
[29] = second compound 1 µM, first compound 0.316 µM
[30] = second compound 1 µM, first compound 1 µM
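Also: spheroids exposed to agents for seven days before readout.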
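For viability, T/C in this document: percent of vehicle DMSO control viability which is 100%.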

CCN1CCN(Cc2ccc(Nc3ncc(F)c(-c4cc(F)c5nc(C)n(C(C)C)c5c4)n3)nc2)CC1 + COc1c(OCCCN2CCOCC2)ccc2c3n(c(=NC(=O)c4cnc(N)nc4)nc12)CCN3
> 1000 nM: IC50 [1] | IC50 [2]
< 3.16 nM: IC50 [4] | IC50 [5] | IC50 [6]
inactive: viability, T/C (second compound 0.00316 µM, first compound 0.00316 µM) 113% | viability, T/C (second compound 0.00316 µM, first compound 0.01 µM) 83.4% | viability, T/C [7] 72.7% | viability, T/C [8] 50.2% | viability, T/C [9] 50.7% | viability, T/C [10] 53.8% | viability, T/C (second compound 0.01 µM, first compound 0.00316 µM) 75.4% | viability, T/C (second compound 0.01 µM, first compound 0.01 µM) 60.3% | viability, T/C [11] 58.7% | viability, T/C [12] 58% | viability, T/C [13] 47.8% | viability, T/C [14] 50.4% | viability, T/C (second compound 0.0316 µM, first compound 0.00316 µM) 56% | viability, T/C (second compound 0.0316 µM, first compound 0.01 µM) 55.5% | viability, T/C [15] 73.6% | viability, T/C [16] 27.9% | viability, T/C [17] 41.4% | viability, T/C [18] 48.2% | viability, T/C (second compound 0.1 µM, first compound 0.00316 µM) 36.2% | viability, T/C (second compound 0.1 µM, first compound 0.01 µM) 32% | viability, T/C [19] 27.9% | viability, T/C [20] 21.1% | viability, T/C [21] 31.3% | viability, T/C [22] 38.5% | viability, T/C (second compound 0.316 µM, first compound 0.00316 µM) 22% | viability, T/C (second compound 0.316 µM, first compound 0.01 µM) 16% | viability, T/C [23] 21.6% | viability, T/C [24] 21.2% | viability, T/C [25] 34.1% | viability, T/C [26] 29.4% | viability, T/C (second compound 1 µM, first compound 0.00316 µM) 9.7% | viability, T/C (second compound 1 µM, first compound 0.01 µM) 9.65% | viability, T/C [27] 9.55% | viability, T/C [28] 12.1% | viability, T/C [29] 16.5% | viability, T/C [30] 21.9%
57.5 nM: IC50 [3]

CC(C)n1nc(-c2ccc3oc(N)nc3c2)c2c(N)ncnc21
33 nM and 20.9 nM and 24.6 nM: IC50 (curve of compound)
inactive: viability, T/C (compound 0.000316 µM) 54.7% and 69.8% and 94.8% | viability, T/C (compound 0.001 µM) 120% and 96.8% and 70% | viability, T/C (compound 0.00316 µM) 68.2% and 77.3% and 63.2% | viability, T/C (compound 0.01 µM) 52.8% and 72.2% and 93.4% | viability, T/C (compound 0.0316 µM) 58.9% and 37.7% and 41.6% | viability, T/C (compound 0.1 µM) 21.2% and 24% and 17.7%

Cn1nccc1Nc1nccc(-c2ccn(C(CO)c3ccc(Cl)c(F)c3)c(=O)c2)n1 (stereo unspecified) + CC(Nc1ccc2c(c1)OCCn1cc(N3C(=O)OCC3C(F)F)nc1-2)C(N)=O
4630 nM: IC50 [2]
> 10000 nM: IC50 [6]
6060 nM: IC50 [1]
3890 nM: IC50 [5]
inactive: viability, T/C [7] 87.6% | viability, T/C [8] 72.7% | viability, T/C [9] 88.3% | viability, T/C [10] 72.5% | viability, T/C (second compound 0.00316 µM, first compound 3.16 µM) 83.5% | viability, T/C (second compound 0.00316 µM, first compound 10 µM) 26.2% | viability, T/C [11] 70% | viability, T/C [12] 79.8% | viability, T/C [13] 76.7% | viability, T/C [14] 70.9% | viability, T/C (second compound 0.01 µM, first compound 3.16 µM) 64.1% | viability, T/C (second compound 0.01 µM, first compound 10 µM) 22.2% | viability, T/C [15] 90.6% | viability, T/C [16] 102% | viability, T/C [17] 90.2% | viability, T/C [18] 105% | viability, T/C (second compound 0.0316 µM, first compound 3.16 µM) 98.5% | viability, T/C (second compound 0.0316 µM, first compound 10 µM) 30.9% | viability, T/C [19] 58.9% | viability, T/C [20] 84.9% | viability, T/C [21] 92.3% | viability, T/C [22] 115% | viability, T/C (second compound 0.1 µM, first compound 3.16 µM) 87% | viability, T/C (second compound 0.1 µM, first compound 10 µM) 33% | viability, T/C [23] 110% | viability, T/C [24] 67.6% | viability, T/C [25] 80.5% | viability, T/C [26] 60.8% | viability, T/C (second compound 0.316 µM, first compound 3.16 µM) 65.7% | viability, T/C (second compound 0.316 µM, first compound 10 µM) 33.1% | viability, T/C [27] 55.9% | viability, T/C [28] 63.7% | viability, T/C [29] 72.4% | viability, T/C [30] 80.3% | viability, T/C (second compound 1 µM, first compound 3.16 µM) 75.9% | viability, T/C (second compound 1 µM, first compound 10 µM) 34.4%
6970 nM: IC50 [4]
7180 nM: IC50 [3]
